In data set [1] the test system is tumor. Put plainly: 5-FU and oral BAU in tumor-bearing CD8FI mice (Table 5). Particulars: 5-FU 150 mg/kg/wk.
A short description of data set [2]: Toxicity of 5-FU and tumor weight in tumor-bearing CD8FI female mice (Table 2). Particulars: mouse, in vivo, iv.
Data set [3] concerns tumor. The data set is described as above.
Data set [4] in a line: Toxic dose of weekly 5-FU and severity of myelosuppression in patients (Table 1). Particulars: for Toxic dose: weekly i.v. 5-FU. It is filed as in vivo, human. Here is the method:
A representative schedule of clinical administration includes administering weekly i.v. injections of a bolus of 5-FU on an outpatient basis. A typical starting dose is about 500 mg/m^2. Every four weeks the 5-FU dose is increased by 20% until dose-limiting toxicity occurs, which can be indicated by weight loss, or destruction of bone marrow cells and the loss of white blood cells.

The nature of data set [5]: Toxicity of 5-FU 130 mg/kg/wk in CD8FI female mice with breast tumors (FIG. 1). It is filed as in vivo, mouse. To be noted: mouse, in vivo, iv; 5-FU 130 mg/kg/wk i.v. × 3 weeks. Here is the method: (§1) FIG. 1 is a plot showing the toxicity of 5-fluorouracil. Toxicity in the plot is measured as a function of the percent of body weight change over time.
(§2) FIG. 1 establishes that 5-FU administered by i.v. in doses of 130 mg/kg/wk to mice is a toxic dose. Toxicity is determined by a change in body weight. Ten CD8FI female mice with breast tumors were treated with weekly doses of 5-fluorouracil in amounts of 130 mg/kg for three weeks. The percent of body weight change of the mice is shown and plotted over a period of approximately 12 days after administration of the last dose. The mice receiving 130 mg/kg of 5-FU suffered a weight loss of approximately 25% and a mortality of 30%.

For data set [6], the system named is breast tumors. The data set is described as above. It is filed as in vivo, mouse. The method, then:
as §1, §2

In data set [7] the test system is phosphorylase. Particulars: in combination with uridine (Martin et al); cited from earlier work.
A short description of data set [8]: BAU toxicity in animals. It is filed as in vivo. To be noted: animal data. Here is the method:
BAU may be administered orally at the rate of 0.5-2 g/m^2 every 4-6 hours for 3 days starting 1/2-2 hours after 5-FU administration, i.e., between 6 g/m^2 /wk and 36 g/m^2 /wk. Based on animal data BAU is non-toxic. Accordingly, it appears that the amounts of BAU which can be administered are not limited by toxic effects and, therefore, increased amounts of BAU may be administered.

The test system of data set [9] is thymidylate synthetase. To be noted: Goodman & Gilman 5th Ed.; cited from earlier work.
The test system of data set [10] is tumor. Put plainly: 5-FU and oral uridine rescue plus BAU in tumor-bearing CD8FI mice (Table 7). It is filed as in vivo, mouse. To be noted: 5-FU 150 mg/kg. The method, then: (§3) Observations were recorded 6 days after the last injection.
(§4) A second trial was repeated by administering uridine 2 hours after the administration of 5-fluorouracil in a concentration of 780 mg/kg and then 2 1/2 hours later at a concentration of 1,040 mg/kg every 8 hr×5.

Data set [11] concerns tumor. The data set is described as follows: 5-FU and oral uridine rescue in tumor-bearing CD8FI mice (Table 4). It is filed as in vivo, mouse. Particulars: 5-FU 150 mg/kg weekly. Here is the method: as §3, §4
The conditions of data set [12]: in vivo, cited from earlier work.
[13] abbreviates: 5-FU 100 mg/kg i.v. weekly × 3, 6 days after last injection.
Setting [14] is: 5-FU 150 mg/kg i.v. weekly × 3, 6 days after last injection.
The mark [15] stands for this setting: patient 1, weekly 5-FU toxic dose 720 mg/m^2.
The mark [16] stands for this setting: patient 2, weekly 5-FU toxic dose 600 mg/m^2.
Where [17] appears, read: patient 3, weekly 5-FU toxic dose 600 mg/m^2.
[18] abbreviates: patient 4, weekly 5-FU toxic dose 864 mg/m^2.
The mark [19] stands for this setting: patient 5, weekly 5-FU toxic dose 864 mg/m^2.
Where [20] appears, read: patient 6, weekly 5-FU toxic dose 864 mg/m^2.
Setting [21] is: patient 7, weekly 5-FU toxic dose 600 mg/m^2.
Setting [22] is: patient 8 (first), weekly 5-FU toxic dose 720 mg/m^2.
Where [23] appears, read: patient 8 (second), weekly 5-FU toxic dose 720 mg/m^2.
Where [24] appears, read: oral UR 600 then 800 mg/kg q. 8 hr × 5, plus oral BAU 250 mg/kg.
[25] abbreviates: oral UR 780 then 1,040 mg/kg q. 8 hr × 5, plus oral BAU 250 mg/kg.
[26] abbreviates: then oral UR 600 mg/kg at 2 hrs, then 800 mg/kg q. 8 hr × 5.
Where [27] appears, read: then oral UR 780 mg/kg at 2 hrs, then 1,040 mg/kg q. 8 hr × 5.

With `O=c1[nH]cc(F)c(=O)[nH]1` [5-FU, 5-fluorouracil], the “lethality of 5-FU (in words)” value in data set [1] is reported as “lethal dose”. This compound yielded an MTD in data set [2] of 100 mg/kg. Besides, the Mortality in data set [2] (150 mg/kg) is 80%; in data set [3] (setting [13]), 0/10; in data set [3] (setting [14]), 8/10; in data set [5], 30%. Moreover, the entries for the “Tumor Weight” value in data set [3] (setting [13]) and in [3] (setting [14]) were 688 mgs and 433 mgs, respectively. Moreover, the “Nadir at toxicity, Platelets” value amounted to 1.51e+08 mL⁻¹ in data set [4] (setting [15]); 1.01e+08 mL⁻¹ in [4] (setting [16]); 7.6e+07 mL⁻¹ in data set [4] (setting [17]); 1.1e+08 mL⁻¹ in data set [4] (setting [18]); 2.05e+08 mL⁻¹ in data set [4] (setting [19]); 8.4e+07 mL⁻¹ in data set [4] (setting [20]). The “Nadir at toxicity, Platelets” value in [4] (setting [21]) was found to be 8.2e+07 mL⁻¹; in [4] (setting [22]), 9.5e+07 mL⁻¹; in [4] (setting [23]), 7.4e+07 mL⁻¹. Moreover, the “Nadir at toxicity, wbc” value in data set [4] (setting [15]) was found to be 1.6e+06 mL⁻¹; in data set [4] (setting [16]), 2.7e+06 mL⁻¹; in [4] (setting [17]) it was 1.4e+06 mL⁻¹; in data set [4] (setting [18]), 2.8e+06 mL⁻¹; in data set [4] (setting [19]) it was 2e+06 mL⁻¹; in data set [4] (setting [20]) it was 4.3e+06 mL⁻¹. For the same compound, the “Nadir at toxicity, wbc” value in [4] (setting [21]) was determined as 6.7e+06 mL⁻¹; in data set [4] (setting [22]), 4.1e+06 mL⁻¹; in data set [4] (setting [23]), 3.7e+06 mL⁻¹. In addition, the Toxic dose in data set [4] (patient 1, WHO 1, prior chemotherapy None) is given as 720 mg/m^2; in data set [4] (patient 2, WHO 1, prior chemotherapy None) it was 600 mg/m^2; in [4] (patient 3, WHO 0, prior HAI 5-FU), 600 mg/m^2; in data set [4] (patient 4, WHO 2, prior chemotherapy None), 864 mg/m^2; in data set [4] (patient 5, WHO 1, prior chemotherapy None) it was 864 mg/m^2; in data set [4] (patient 6, WHO 1, prior HAI 5-FU) it was 864 mg/m^2. In addition, the Toxic dose is 600 mg/m^2 in [4] (patient 7, WHO 1, prior TGU); 720 mg/m^2 in [4] (patient 8 (first), WHO 1, prior chemotherapy None); 720 mg/m^2 in data set [4] (patient 8 (second), WHO 0, prior FAC); 130 mg/kg/wk in data set [6] (i.v., mice). Further, the weight loss result in data set [6] (5-FU 130 mg/kg/wk i.v. × 3 weeks) is recorded as “approximately 25%”.
On to `O=c1[nH]c(=O)n(COCCO)cc1Cc1ccccc1` [BAU, 5-benzylacyclouridine], for which the “effect on uridine breakdown and clearance” value in data set [7] was “prevents the breakdown of uridine by phosphorylase and the subsequent rapid body clearance of uridine”. For the same compound, the toxicity result in [8] is reported as “non-toxic”.
Turning to `O=c1[nH]c(=O)n([C@H]2C[C@H](O)[C@@H](COP(=O)(O)O)O2)cc1F` [F-dUMP, 5-fluoro-2'-deoxyuridine-5'-phosphate], the “affinity for thymidylate synthetase” value in data set [9] is “unusually great affinity”.
In the case of `O=c1ccn([C@@H]2O[C@H](CO)[C@@H](O)[C@H]2O)c(=O)[nH]1` [uridine], the Mortality was 0/10 in [10] (setting [24]), 1/10 in data set [10] (setting [25]), 4/10 in [11] (setting [26]) and 0/10 in [11] (setting [27]). Also, the “Tumor Weight” value was determined as 475 mgs in data set [10] (setting [24]), 434 mgs in data set [10] (setting [25]), 242 mgs in data set [11] (setting [26]) and 361 mgs in data set [11] (setting [27]). Also, the “side effects of intravenous uridine” value in [12] (iv) is “fever and phlebitis”. Further, in [12] (po), the “side effects of oral uridine in large doses” value is “irritates the gastrointestinal tract, which frequently causes severe diarrhea”. Also, the catabolism of uridine entry in [12] is “quickly catabolized”. In addition, in data set [12], the “plasma uridine levels after large doses of uridine” value is recorded as “millimolar or high micromolar uridine levels”.

(Values after patent US5543401A (priority 1994, dated 1996).)
